For 3 compounds, solubility, microsomal CLint and Activity results are on record in ChEMBL document CHEMBL3763048, “Design and discovery of 3-aryl-5-substituted-isoquinolin-1-ones as potent tankyrase inhibitors” (Medchemcomm, 2015).

A short description of data set [1]: Aqueous solubility of the compound in phosphate buffer at pH 7.4. The data set is classed as physicochemical.
A short description of data set [2]: Intrinsic clearance in mouse liver microsomes assessed per mg of protein. The following applies: read-out: CLH. The data set is classed as ADME. Background: Liver microsomes are vesicles of endoplasmic reticulum, rich in cytochrome P450 enzymes.
For the next data set, the system named is SW480. In words: Induction of cellular DNA damage PARylation in human SW480 cells at >100 uM by Western blot analysis. The data set is classed as functional, cell-based. On the technique in general: In western blotting, separated proteins are transferred to a membrane and probed.
Data set [3] is described as follows: Intrinsic clearance in human liver microsomes assessed per mg of protein. The data set is classed as ADME. The following applies: read-out: CLH.

Calls of active or inactive are those of the source. No cut-off for these calls is given here.

With `CN(C)Cc1ccc(-c2cc3ccccc3c(=O)[nH]2)cc1`, the solubility – broadly, the concentration that dissolves in the medium under given conditions – in data set [1] is more than 100 µM.

Take `COc1cccc2c(=O)[nH]c(-c3ccc(CN(C)C)cc3)cc12`: in data set [1], the solubility is more than 100 µM.

In data set [1], `Cc1cccc2c(=O)[nH]c(-c3ccc(CN4CCC(N(C)C)CC4)cc3)cc12` returned a solubility of more than 100 µM. Also, the results for the microsomal CLint in data set [2] and in data set [3] were 10 µL/min/mg and 5 µL/min/mg, respectively. Also, the outcome in the data set on SW480 was Active.
